Read-outs that look alike come from different tables or passages of the source.
Tests used:
Jurkat cells = experiment: Cell viability MTS assay, Jurkat; type: cell-based; conditions: Homo sapiens, Jurkat; 72 h, MTS assay; read-out: IC50 antiproliferative, Jurkat
Protocol: (§1) MTS assay was used to measure the cell viability. For single treatment, Jurkat, THP-1 and HEL (8000 cells/well), HCT116 and A549 (2000 cells/well) were seeded in 96-well plates in 100 μL complete medium. After overnight incubation, 50 μL of media containing various concentrations of compounds or the vehicle were added to each well. For cotreatment, cells were seeded in 96-well plates in 50 μL complete medium. After overnight incubation, 50 μL of Z-VAD-FMK, Nec-1, Fer-1, CQ, and other indicated compounds were added to each well. One hour later, 50 μL of media containing various concentrations of compounds were added to each well. After 72 h of treatment, 20 μL of CellTiter 96 AQueous One Solution reagent (Promega, Madison, USA) was added to each well according to manufacturer’s protocol. Plates were incubated at 37 °C for 1–2 h. The absorbance was determined at a wavelength of 490 nm using a Synergy H1 plate reader (Biotek, Winooski, VT, USA).

THP-1 cells = experiment: Cell viability MTS assay, THP-1; type: cell-based; conditions: Homo sapiens, 72 h, read-out: IC50 antiproliferative, THP-1
Protocol: as §1

HCT116 cells = experiment: Cell viability MTS assay, HCT116; type: cell-based; conditions: Homo sapiens, HCT-116, 72 h, read-out: IC50 antiproliferative, HCT116
Protocol: as §1

A549 cells = experiment: Cell viability MTS assay, A549; type: cell-based; conditions: Homo sapiens, 72 h, read-out: IC50 antiproliferative, A549
Protocol: as §1

acetyl-SMC3 (Ac-SMC3) = experiment: Ac-SMC3 level in Jurkat cells, Western blot; type: cell-based; conditions: 1 μM, 6 h
HDAC1 = HDAC1 (Homo sapiens, UniProt Q13547); experiment: In vitro HDAC1 deacetylase inhibition assay; conditions: read-out: HDAC1 IC50; recombinant enzyme, Boc-Lys(Ac)-AMC
Protocol: (§2) After a following incubation at 37 °C for 20 min, the fluorescence was measured on a Synergy H1 Platereader (BioTek, USA) with an excitation wavelength of 370 nm and an emission wavelength of 460 nm. Nonlinear regression was used for the determination of the IC50 of each compound.

HDAC2 = HDAC2 (Homo sapiens, UniProt Q92769); experiment: In vitro HDAC2 deacetylase inhibition assay; conditions: read-out: HDAC2 IC50; recombinant enzyme, Boc-Lys(Ac)-AMC
Protocol: as §2

HDAC3/NcoR2 = HDAC3/NcoR2 (Homo sapiens, UniProt O15379); experiment: In vitro HDAC3 deacetylase inhibition assay; conditions: read-out: HDAC3 IC50; recombinant enzyme, Boc-Lys(Ac)-AMC
Protocol: as §2

HDAC8 [1] = target: T1, HDAC8 (Homo sapiens, UniProt Q9BY41); experiment: In vitro HDAC8 deacetylase inhibition assay; conditions: read-out: HDAC8 IC50; recombinant enzyme, Boc-Lys(TFA)-AMC
T1 sequence (Q9BY41 1-377): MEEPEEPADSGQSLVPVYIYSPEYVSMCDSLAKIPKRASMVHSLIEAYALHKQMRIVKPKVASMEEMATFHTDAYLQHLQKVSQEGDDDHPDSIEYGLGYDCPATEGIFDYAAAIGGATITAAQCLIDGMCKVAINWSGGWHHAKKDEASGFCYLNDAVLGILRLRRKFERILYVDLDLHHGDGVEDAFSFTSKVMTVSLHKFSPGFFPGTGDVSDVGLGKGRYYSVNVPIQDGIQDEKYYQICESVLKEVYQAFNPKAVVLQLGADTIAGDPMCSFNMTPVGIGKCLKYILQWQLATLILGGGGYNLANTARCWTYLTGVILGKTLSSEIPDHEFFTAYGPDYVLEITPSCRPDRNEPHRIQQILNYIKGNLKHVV
Protocol: as §2

HDAC6 [2] = target: T2, HDAC6 (Homo sapiens, UniProt Q9UBN7); design: endogenous in cells; conditions: MDA-MB-231 cells; cited from earlier work
T2 sequence (Q9UBN7 1-1215): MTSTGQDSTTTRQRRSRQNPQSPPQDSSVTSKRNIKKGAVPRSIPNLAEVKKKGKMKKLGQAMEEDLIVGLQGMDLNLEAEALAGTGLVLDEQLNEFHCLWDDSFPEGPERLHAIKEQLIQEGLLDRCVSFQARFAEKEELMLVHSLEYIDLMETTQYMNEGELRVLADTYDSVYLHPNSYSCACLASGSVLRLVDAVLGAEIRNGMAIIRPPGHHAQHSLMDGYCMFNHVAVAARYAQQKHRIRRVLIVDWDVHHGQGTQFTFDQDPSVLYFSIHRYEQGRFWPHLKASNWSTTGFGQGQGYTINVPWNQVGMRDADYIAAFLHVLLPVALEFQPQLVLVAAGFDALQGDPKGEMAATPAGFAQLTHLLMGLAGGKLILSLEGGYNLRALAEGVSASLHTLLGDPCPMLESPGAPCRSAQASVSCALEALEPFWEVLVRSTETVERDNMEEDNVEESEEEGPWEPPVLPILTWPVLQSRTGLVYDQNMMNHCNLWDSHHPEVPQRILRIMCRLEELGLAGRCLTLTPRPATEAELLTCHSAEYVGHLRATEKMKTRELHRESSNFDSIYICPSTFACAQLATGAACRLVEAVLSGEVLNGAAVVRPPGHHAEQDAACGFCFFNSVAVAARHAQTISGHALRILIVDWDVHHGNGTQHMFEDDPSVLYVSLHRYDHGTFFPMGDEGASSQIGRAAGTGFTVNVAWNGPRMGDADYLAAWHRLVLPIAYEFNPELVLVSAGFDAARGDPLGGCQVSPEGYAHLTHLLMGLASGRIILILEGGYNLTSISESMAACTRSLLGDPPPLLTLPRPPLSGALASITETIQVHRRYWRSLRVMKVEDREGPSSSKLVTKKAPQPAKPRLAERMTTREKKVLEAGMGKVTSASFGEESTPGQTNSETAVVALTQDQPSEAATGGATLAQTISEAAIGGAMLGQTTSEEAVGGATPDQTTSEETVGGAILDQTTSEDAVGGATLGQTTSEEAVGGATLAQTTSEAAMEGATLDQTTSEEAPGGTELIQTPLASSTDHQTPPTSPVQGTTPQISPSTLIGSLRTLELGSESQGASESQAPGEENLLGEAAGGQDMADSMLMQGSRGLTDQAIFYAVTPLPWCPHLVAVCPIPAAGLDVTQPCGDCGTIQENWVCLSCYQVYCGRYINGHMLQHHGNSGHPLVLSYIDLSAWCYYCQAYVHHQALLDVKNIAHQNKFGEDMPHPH

HDAC6 [3] = target: T2, HDAC6; design: endogenous in cells; host or cells: Jurkat; conditions: Jurkat cells; cited from earlier work
HDAC8 [4] = target: T1, HDAC8; design: endogenous in cells; host or cells: A549; method as in PMID 36516047; conditions: A549 cells; cited from earlier work

Chain of HDAC3/NcoR2 (O15379 whole entry): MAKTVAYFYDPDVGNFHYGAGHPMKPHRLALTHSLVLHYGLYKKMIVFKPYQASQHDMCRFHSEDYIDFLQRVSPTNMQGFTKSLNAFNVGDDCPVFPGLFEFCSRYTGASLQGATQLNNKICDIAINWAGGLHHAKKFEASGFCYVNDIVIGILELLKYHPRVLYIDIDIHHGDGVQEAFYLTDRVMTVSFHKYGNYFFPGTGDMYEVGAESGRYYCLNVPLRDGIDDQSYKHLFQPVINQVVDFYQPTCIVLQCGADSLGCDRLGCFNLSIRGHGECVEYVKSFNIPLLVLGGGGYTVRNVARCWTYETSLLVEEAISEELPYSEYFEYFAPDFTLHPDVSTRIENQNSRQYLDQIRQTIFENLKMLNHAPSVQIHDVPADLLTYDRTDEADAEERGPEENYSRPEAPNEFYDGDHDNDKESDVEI
Chain of HDAC3/NcoR2 (Q9Y618 395-489 partner limits assumed): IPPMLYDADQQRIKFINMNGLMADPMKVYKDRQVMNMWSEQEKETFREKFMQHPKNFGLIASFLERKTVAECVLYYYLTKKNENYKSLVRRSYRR
Chain of HDAC2 (Q92769 whole entry): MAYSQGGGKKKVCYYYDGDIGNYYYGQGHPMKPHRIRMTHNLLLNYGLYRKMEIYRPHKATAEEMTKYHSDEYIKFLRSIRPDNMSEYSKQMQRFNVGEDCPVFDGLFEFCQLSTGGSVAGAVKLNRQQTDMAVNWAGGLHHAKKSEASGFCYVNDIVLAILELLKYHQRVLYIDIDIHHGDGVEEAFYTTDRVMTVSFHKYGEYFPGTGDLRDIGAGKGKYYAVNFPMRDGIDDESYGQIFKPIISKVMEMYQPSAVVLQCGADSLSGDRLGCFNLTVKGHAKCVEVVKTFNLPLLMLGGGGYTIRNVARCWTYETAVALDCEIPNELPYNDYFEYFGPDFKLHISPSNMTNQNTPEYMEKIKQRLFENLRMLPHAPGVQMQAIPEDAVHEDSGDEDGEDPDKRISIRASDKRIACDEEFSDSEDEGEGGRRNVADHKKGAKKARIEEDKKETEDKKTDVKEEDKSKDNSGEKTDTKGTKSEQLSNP
Chain of HDAC1 (Q13547 whole entry): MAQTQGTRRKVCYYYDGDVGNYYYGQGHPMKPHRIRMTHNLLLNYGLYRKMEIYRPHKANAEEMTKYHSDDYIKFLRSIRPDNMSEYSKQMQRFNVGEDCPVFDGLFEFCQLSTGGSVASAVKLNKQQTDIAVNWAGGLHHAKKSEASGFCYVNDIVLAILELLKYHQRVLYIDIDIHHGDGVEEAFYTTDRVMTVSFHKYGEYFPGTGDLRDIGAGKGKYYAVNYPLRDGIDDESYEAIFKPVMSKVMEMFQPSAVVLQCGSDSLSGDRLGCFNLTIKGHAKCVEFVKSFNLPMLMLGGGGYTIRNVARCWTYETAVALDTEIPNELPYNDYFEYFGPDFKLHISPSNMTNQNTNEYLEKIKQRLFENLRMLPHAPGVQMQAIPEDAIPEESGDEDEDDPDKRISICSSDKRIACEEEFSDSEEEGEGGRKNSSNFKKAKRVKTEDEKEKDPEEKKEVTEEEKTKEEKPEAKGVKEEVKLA

| SMILES | IC50 (Jurkat cells) [µM] | IC50 (THP-1 cells) [µM] | IC50 (HCT116 cells) [µM] | IC50 (A549 cells) [µM] | level of Ac-SMC3 at 1 μM (in words) (acetyl-SMC3 (Ac-SMC3)) | IC50 (HDAC1) [µM] | IC50 (HDAC2) [µM] | IC50 (HDAC3/NcoR2) [µM] | IC50 (HDAC8 [1]) [µM] | DC50 (HDAC6 [2]) [µM] | DC50 (HDAC6 [3]) [µM] | DC50 (HDAC8 [4]) [µM] |
| --- | --- | --- | --- | --- | --- | --- | --- | --- | --- | --- | --- | --- |
| CCCCCCNNC(=O)c1ccc(CNC(C)=O)cc1 [Compound 6, N-(4-(2-Hexylhydrazine-1-carbonyl)benzyl)acetamide] | > 33.3 | > 33.3 | > 33.3 | > 33.3 | neither 1 μM of pan-HDAC inhibitor SAHA nor 1 μM of HDAC8 inhibitor 6 increased the level of Ac-SMC3 | 0.94 ± 0.05 | 8 ± 1 | 9.5 ± 0.7 | 0.6 ± 0.08 |  |  |  |
| COc1ccc(C(=O)NO)cc1OCc1ccc(C(=O)NCCCCCCCCNc2cccc3c2C(=O)N(C2CCC(=O)NC2=O)C3=O)cc1 (stereo not shown) [PROTAC 4] | 4 ± 0.8 | 10.8 ± 0.9 | 8 ± 0.5 | 15.2 ± 3.3 |  |  |  |  |  | 0.038 | 0.0785 |  |
| O=C1CCC(N2C(=O)c3cccc(NCc4cn(CCOCCOc5ccc(Cn6ccc7ccc(C(=O)NO)cc76)cc5)nn4)c3C2=O)C(=O)N1 (stereo not shown) [PROTAC 5] |  |  |  |  |  |  |  |  |  |  |  | 0.58 |

Reference: paper PMC11345830, “Exploration of Hydrazide-Based HDAC8 PROTACs for the Treatment of Hematological Malignancies and Solid Tumors” (Journal of Medicinal Chemistry, 2024)
